Test results: patent US20160289728A1, “METHOD FOR DETECTING FLUORESCENCE OR ABSORBANCE, METHOD FOR SUPPRESSING BACKGROUND, METHOD FOR MEASURING ADP, METHOD FOR MEASURING ACTIVITY OF ADP-SYNTHESIZING ENZYME, AND METHOD FOR MEASURING ACTIVITY OF GLUCOSYLTRANSFERASE” (The University of Tokyo, priority 2013, published 2016)
Where two headings read alike, the source gives them in different places.

Legend:
CMPK1 = target: T1, CMPK1 (Homo sapiens, UniProt P30085); experiment: Inhibition of CMPK1 measured by the enzymatic coupling fluorescence method; assay type: biochemical; conditions: enzymatic coupling with 20 mM N-ethylmaleimide; matched HPLC method
T1 construct: purchased Prospec pKa-002-b
T1 sequence (P30085 1-196): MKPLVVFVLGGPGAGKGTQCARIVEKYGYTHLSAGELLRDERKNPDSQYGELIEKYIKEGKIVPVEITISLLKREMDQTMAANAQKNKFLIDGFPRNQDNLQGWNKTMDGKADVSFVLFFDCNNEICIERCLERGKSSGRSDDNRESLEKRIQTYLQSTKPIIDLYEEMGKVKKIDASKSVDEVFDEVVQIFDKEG
Protocol: Enzyme inhibitory activities of Ap5A (P^1,P^5-Di(adenosine-5′)pentaphosphate) in which inhibitory activities of dictyostelium (Dictyostelium discoideum) on CMP kinase have been reported (J. Biol. Chem, Vol. 265, No. 11, pp. 6339-6345, 1990) on CMPK1 were measured using a method of the present invention. A 0 to 3 mM Ap5A (1 μl) (catalog number D4022 commercially available from Sigma-Aldrich) solution and 50 μM CMP (2 μl) were added to a 384-well microplate, and 200 μM ATP (2 μi), 3 μg/ml CMPK1, and 4 mM DTT were added thereto (a buffer solution composition included 100 mM Tris-HCl (pH 9), 13.5 mM MgCl2, 150 mM KCl, and 0.1% TritonX-100). The result was covered with a plate seal and incubated for 1 hour at 37° C. Then, the result was cooled at room temperature, and the mixed solution for enzymatic coupling (5 μl) containing 20 mM N-ethylmaleimide was added and incubated for 60 minutes at 25° C. in darkness. Then, fluorescence was measured using a plate reader. A group containing no Ap5A was set as a control (an inhibition rate of 0%), a group containing no CMPK1 was set as a control (an inhibition rate of 100%), and inhibition rates of Ap5A of respective concentrations on CMPK1 were calculated.

[1] = system: enzymatic coupling reaction; experiment: Influence on enzymatic coupling itself (25 μM ADP instead of CMP); assay type: biochemical; conditions: 25 μM ADP instead of 50 μM CMP
Protocol: In addition, the same operations were performed using 25 μM ADP instead of 50 μM CMP, and an influence of Ap5A on enzymatic coupling itself was studied. In addition, some of the reaction solution after the kinase reaction of CMPK1 was used, an amount of produced CDP was measured by the HPLC analysis method described in Example 14, and an inhibitory activity was determined by an HPLC method.

human FUT7 [2] = target: T2, human FUT7 (Homo sapiens, UniProt Q11130); experiment: Inhibition of FUT7 measured by the enzymatic coupling fluorescence method of the invention; assay type: biochemical; conditions: method of the present invention, FUT7 1 μg/ml; read-out: IC50 value, inhibitory activity on FUT7
T2 sequence (Q11130 1-342): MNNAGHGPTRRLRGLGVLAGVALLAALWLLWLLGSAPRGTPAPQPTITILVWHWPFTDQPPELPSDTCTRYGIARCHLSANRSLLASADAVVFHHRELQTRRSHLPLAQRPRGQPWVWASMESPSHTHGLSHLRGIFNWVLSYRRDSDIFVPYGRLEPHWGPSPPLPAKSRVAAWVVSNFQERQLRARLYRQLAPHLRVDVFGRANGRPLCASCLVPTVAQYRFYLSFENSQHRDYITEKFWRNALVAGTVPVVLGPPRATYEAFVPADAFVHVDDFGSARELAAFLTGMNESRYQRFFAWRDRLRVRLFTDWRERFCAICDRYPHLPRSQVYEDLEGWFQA
Protocol: 100 μM GDP-fucose (2.5 μl), 6 mg/ml fetuin, and 0 to 4 μg/ml FUT7 (2.5 μl) were added to a 384-well microplate (a buffer solution included 50 mM Tris-HCl (pH 7.5), 5 mM MgCl2, 10 mM MnCl2, and 0.1% Triton X-100), covered with a plate seal (catalog number 1-6774-01 commercially available from AS ONE corporation) and incubated for 1 hour at 37° C. After being cooled to room temperature, the mixed solution A for the first process (5 μl) was added to the result and incubated for 1 hour at 25° C. The mixed solution B for the second process (10 μl) was added to the result, and incubated for 30 minutes at 25° C. Fluorescence thereof was measured similarly to Example 1. A fluorescence value according to an enzyme concentration was confirmed.
When enzyme activities of FUT7 were measured using the method described in Example 4, an inhibitory effect of gallic acid on FUT7 was studied according to the same operations as in Example 4 except that a reaction of FUT7 (a concentration of 1 μg/ml in a transglucosylation solution) was caused in the presence of gallic acid. A group containing no gallic acid was set as a control (an inhibition rate of 0%), a group containing no FUT7 was set as a control (an inhibition rate of 100%), and inhibition rates of gallic acid of respective concentrations of FUT7 were calculated.

human FUT7 [3] = target: T2, human FUT7; experiment: Inhibition of FUT7 measured by HPLC quantification of produced GDP; assay type: biochemical; conditions: FUT7 1 μg/ml, read-out: IC50 value, inhibitory activity on FUT7
Protocol: (§1) In addition, the same operations were performed using 50 μM GDP instead of 100 μM GDP-fucose, and an influence of enzymatic coupling itself on gallic acid was studied. In addition, an amount of GDP produced was quantified by HPLC analysis using some of the reaction solution after the FUT7 enzymatic reaction, and an inhibitory activity was determined by an HPLC method.
HPLC conditions were as follows: column: YMC-Triart C18 (commercially available from Ymc Corporation, particle size: 5 μm, and diameter: 4.6 mm×length: 150 mm), eluate: 50 mM KH2PO4—K2HPO4 (10:1), flow rate: 1 ml/min, and detection: UV 260 nm.

[4] = system: enzymatic coupling reaction; experiment: Influence on enzymatic coupling itself (50 μM GDP instead of GDP-fucose); assay type: biochemical; conditions: 50 μM GDP instead of 100 μM GDP-fucose
Protocol: as §1

human FUT7 [5] = target: T2, human FUT7; conditions: reported in Arch. Biochem. Biophys, Vol. 425, No. 1, pp. 51-57, 2004; cited from earlier work

With `Nc1ncnc2c1ncn2[C@@H]1O[C@H](COP(=O)(O)OP(=O)(O)OP(=O)(O)OP(=O)(O)OP(=O)(O)OC[C@H]2O[C@@H](n3cnc4c(N)ncnc43)[C@H](O)[C@@H]2O)[C@@H](O)[C@H]1O` [Ap5A, P^1,P^5-Di(adenosine-5′)pentaphosphate] the “inhibitory activity on CMPK1” value (CMPK1) was “inhibition of CMPK1” and the “inhibition of the enzymatic coupling reaction itself” value [1] was “did not inhibit the enzymatic coupling reaction itself at all”.

For `O=C(O)c1cc(O)c(O)c(O)c1` [gallic acid], the IC50 (human FUT7 [2]) was roughly 10 µM, the IC50 (human FUT7 [3]) was roughly 10 µM and the “inhibition of the enzymatic coupling reaction itself” value [4] was “did not inhibit the enzymatic coupling reaction itself at all”. For the same molecule, the IC50 (human FUT7 [5]) was 5.4 µM.
